Consider 78 compounds from the METLIN SMRT retention time set (Domingo-Almenara et al. 2019).

This data set can be described thus: gradient 5% acetonitrile 3 min, to 50% in 2 min, to 85% in 15 min, held 3 min, 100 µL/min. The note with it: column: Zorbax Extend-C18 2.1 x 50 mm; eluents: water / acetonitrile, 0.1% formic acid. The method in brief:
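Over 3 months, pure standards in mixtures of ~100 molecules were run by HPLC coupled to a quadrupole time-of-flight mass spectrometer in positive and negative ionization mode. The column was a Zorbax Extend-C18 (2.1 × 50 mm, 1.8 μm) at 100 μL/min, eluted with water and acetonitrile each holding 0.1% formic acid, with 40 μL dead and 900 μL dwell volumes. Retention time was determined from adduct peaks chosen by software and checked manually.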
In turn, `O=C(NC1CCCC1)N1CC(Oc2cccc(-c3nc(-c4ccccc4)no3)c2)C1` gave an RP-LC retention time of 1130 s. With `Cc1cc(C(=O)NC(C)C)nn1C` the figure was 628 s.

In turn, `COc1ccc(N2C(=O)C3N=NN(Cc4nc(-c5ccc(Cl)cc5)no4)C3C2=O)cc1` (stereo not drawn) yielded an RP-LC retention time of 1000 s. With `Cc1ccc(NC2CC(=O)N(c3cccc([N+](=O)[O-])c3)C2=O)cc1` (stereo not drawn) the figure was 882 s.

Compound `CCOc1nc2ccccc2nc1N1CCCC(C(=O)Nc2ccccc2C(C)C)C1` (stereo not drawn) showed an RP-LC retention time of 1230 s. The same measure for `CCOC(=O)C1CCc2sc(NC(=O)CCc3csc4nc(C5CC5)cn34)nc21` (stereo not drawn): 599 s; for `COc1ccc(N2C(=O)CCS2(=O)=O)cc1S(=O)(=O)N1CCN(c2ccccn2)CC1`: 603 s.

Compound `Cc1ccc2c(c1)C(=O)NC1(CCN(C(=O)Cc3cccc(F)c3)CC1)N2C` returned an RP-LC retention time of 787 s. The same measure for `COc1ccc(OC)c(S(=O)(=O)NC(C)c2ccccc2)c1` (stereo not drawn): 845 s; for `COc1ccc(C2Cn3cnc(C(=O)N4CCC(C(=O)NCC5CCCCC5)CC4)c3CO2)cc1` (stereo not drawn): 821 s; for `COc1ccc(NC(=O)N2CCCC2c2nc(-c3cccc(OC)c3)no2)cc1` (stereo not drawn): 875 s. Turning to `Cc1cc2[nH]c(C(=O)NC(C)c3ccccc3)c(CN3CCOCC3)c2s1` (stereo not drawn), the RP-LC retention time is 688 s.

As for `CCc1ccc(S(=O)(=O)N2CC(c3nc(-c4ccccc4)nn3C)C2)cc1`, the RP-LC retention time was found to be 1030 s. Consider `COc1ccc(OC)c(CNC(=O)c2cc3c(=O)n(C)ccc3n2C)c1`, for which the RP-LC retention time was found to be 692 s. The same measure for `Cc1cc(C)c(NC(=O)Cn2cc(-c3nc(C)no3)ccc2=O)c(C)c1`: 712 s; for `N#Cc1ccsc1NC(=O)c1ccc2ncsc2c1`: 725 s.

`CCn1c(=O)c(C)nc2cc(-c3noc(/C=C/c4ccc(OC)c(OC)c4)n3)ccc21` showed an RP-LC retention time of 1010 s.

Turning to `CC(=O)N1c2ccc(S(=O)(=O)N3CCCCC3)cc2CC1C(=O)NCCC(C)C` (stereo not drawn), the RP-LC retention time worked out at 822 s. The same measure for `Cc1noc(-c2cccc(OC3CN(C(=O)Cc4ccccc4)C3)c2)n1`: 854 s; for `CCC(c1cccs1)N1C(=O)[C@H]2CN(S(=O)(=O)c3ccc(F)c(F)c3)C[C@H]2C1=O` (stereo partly drawn): 1020 s. With `Cc1ccc2nc(-c3ccncc3)cc(C(=O)Nc3nc(-c4ccccc4)c(C)s3)c2c1` the figure was 990 s; with `CCOC(=O)c1c(C)oc2ncnc(Nc3cc(Cl)ccc3OC)c12`, 1360 s. The same measure for `CCN(CC)c1cc(CNC(=O)Nc2cc(OC)cc(OC)c2)ccn1`: 620 s; for `COc1ccc(C2(C(=O)N3CCC(c4nc(CCOCc5ccccc5)no4)C3)CC2)cc1` (stereo not drawn): 958 s; for `O=S(=O)(NCc1ccccc1F)c1ccccc1-c1nc(-c2cccc(F)c2)no1`: 1170 s.

On to `CC1(C(=O)NC2CCCCCCC2)CN(S(C)(=O)=O)CC(=O)N1c1ccc(F)cc1` (stereo not drawn), for which the RP-LC retention time worked out at 884 s.

As to `CCn1cc(S(=O)(=O)N2CCC(c3noc(-c4ccccc4)n3)C2)cn1` (stereo not drawn), the RP-LC retention time turned out to be 881 s. With `COc1ccc(CC(=O)N2CCN(c3cc(C)n4cnnc4n3)CC2)cc1Cl` the figure was 611 s.

`O=C(NCCC1=CCCCC1)C1CCCN(c2ccnc(-c3ccc(F)cc3)n2)C1` (stereo not drawn): the RP-LC retention time was determined as 752 s. With `COc1ccc(C2(C(=O)N3CCC(n4c(C)cnc4-c4ccccc4)C3)CC2)cc1` (stereo not drawn) the figure was 661 s; with `O=C(NC1(c2nc(-c3ccccc3)no2)CCCCC1)c1ccc2c(c1)OCO2`, 1120 s; with `C=CCN1C(=O)COc2ccc(-c3csc(NC(=O)CCC4CCCCC4)n3)cc21`, 1210 s. With `COc1ccc(OC)c(CCNC(=O)c2c(N3CCCC3=O)c3cc(OC)ccc3n2C)c1` the figure was 867 s; with `O=C(Cn1ccnc1-c1ccnc(N2CCOCC2)c1)Nc1cccc(Br)c1`, 648 s. The same measure for `O=C(Nc1ccc(Cl)c([N+](=O)[O-])c1)Nc1nc2ccccc2s1`: 1050 s; for `Cc1cc2nn(CC(=O)Nc3cc(F)ccc3F)c(=O)n2c(Nc2ccc(F)c(C)c2)n1`: 1100 s. In the case of `CC1(C)CC(=O)c2cn(-c3ccc(Cl)cc3)c(=O)c(C(=O)O)c2C1`, the RP-LC retention time came out at 907 s. With `COc1cc(C2CN(C(=O)c3ccc4c(c3)OCO4)CC2C(=O)NCCC(C)C)cc(OC)c1OC` (stereo not drawn) the figure was 738 s. With `CCCn1cc(S(=O)(=O)Nc2cc(C)cc(C)c2)c2cccnc21` the figure was 946 s; with `O=C1COc2ccc(-c3csc(NC(=O)c4ccc(Br)cc4)n3)cc2N1`, 946 s; with `O=C(Cc1cccc(F)c1)N1CCCC1c1nc(-c2ccc(F)cc2)no1` (stereo not drawn), 1010 s. In turn, `Cc1cc(C(=O)Nc2nnc(-c3ccn(C)n3)o2)c(C)o1` had an RP-LC retention time of 617 s. The same measure for `Cc1ccc(Cl)cc1NC(=O)N(C)CCO`: 737 s; for `CN(CCc1noc(-c2ccc(C(=O)N3CCCCC3)cc2)n1)C(=O)c1ccc(Br)o1`: 782 s.

`CCCS(=O)(=O)c1nc2ccc(NS(=O)(=O)Cc3ccc(Cl)cc3)cc2s1` showed an RP-LC retention time of 953 s.

For the compound `COC(=O)Cn1c(C)cc(=O)n2nc(-c3ccccc3Cl)nc12`, the RP-LC retention time was 729 s. The same measure for `CCNC(=O)c1nc(Nc2ccc(CC)cc2)c2ccccc2n1`: 756 s; for `CCn1nnc2cc(-c3noc(-c4ccc(NC(C)=O)cc4)n3)ccc21`: 812 s. The same measure for `CCc1ccc(C(C)NS(=O)(=O)c2cc3c(s2)CCN(C(=O)C2CCC2)C3)cc1` (stereo not drawn): 1020 s; for `CCc1noc(NC(C)=O)c1-c1ccc(C)c(S(=O)(=O)Nc2ccccc2C)c1`: 836 s.

In the case of `Cc1ccc(N2CC(c3noc(COc4cccc(C)c4)n3)CC2=O)cc1` (stereo not drawn), the RP-LC retention time is 1050 s. The same measure for `COc1cccc(CNC(=O)Cn2c(=O)c(CCC(=O)NCC(C)C)nc3ccccc32)c1OC`: 757 s; for `CCCN1C(=O)COc2ccc(-c3noc(COc4ccccc4)n3)cc21`: 1100 s.

`Cc1cccc(NC(=O)C2CCN(S(=O)(=O)c3cc(-c4noc(C)n4)cs3)CC2)n1` gave an RP-LC retention time of 768 s.

On to `COc1ccc(CCNC(=O)C2CN(S(C)(=O)=O)CC23CCCCC3)cc1OC` (stereo not drawn), for which the RP-LC retention time is 763 s. The same measure for `O=C(c1cccnc1N1CCNC(c2ccccc2)C1)N1CCSCC1` (stereo not drawn): 606 s; for `Cc1ccccc1-c1nnc(COc2ccc(NC(=O)c3sccc3C)cc2)o1`: 1010 s; for `O=C(N[C@H]1C[C@@H]2C[C@H]1CN2C(=O)Cc1ccc(OC(F)(F)F)cc1)c1ccccc1`: 836 s. With `Cc1ccc2ncn(C3CCN(S(=O)(=O)c4cc(C)c(C)cc4C)CC3)c(=O)c2c1` the figure was 1050 s; with `Cc1cccc(-n2c(N3CCCC(C(=O)NCc4ccccc4)C3)nc3ccsc3c2=O)c1` (stereo not drawn), 880 s. For the compound `CCCOc1ccc(CNC(=O)C2CCN(c3cc(Oc4ccccc4)ncn3)CC2)cc1`, the RP-LC retention time amounted to 988 s. The same measure for `Cc1ccc(CN2C(=O)CN(S(=O)(=O)c3ccccc3)CC2(C)C(=O)NCCC(C)C)cc1` (stereo not drawn): 1040 s; for `Cn1c(=O)c2cc(C(=O)Nc3ccc4c(c3)OCO4)cnc2n(-c2ccc(F)cc2)c1=O`: 850 s; for `COc1ccccc1NC(=O)Cn1nc2cc(C)nc(-c3ccccc3)n2c1=O`: 819 s. The same measure for `Cc1ncn(CC(=O)Nc2ccccc2Cl)c(=O)c1C`: 668 s; for `CC1CCN(S(=O)(=O)c2ccc3c(c2)CCCC(=O)N3CC(=O)Nc2ccc(F)cc2)CC1`: 959 s; for `CCS(=O)(=O)c1ccc(-c2ccc(NC(=O)Cc3ccc(F)cc3)cc2)nn1`: 764 s.

`C[C@H]1CN(C(=O)Nc2ccc(Cl)cc2)C[C@@H]1c1nc(-c2cccnc2)no1`: the RP-LC retention time amounted to 863 s. The same measure for `CCOc1nc2ccccc2nc1N1CCCC(C(=O)N2CCSCC2)C1` (stereo not drawn): 1150 s; for `Cc1nnc2ccc(N3CCC(C)CC3)nn12`: 1000 s; for `COC(=O)c1ncoc1-c1ccccc1C(=O)N1CCCC1`: 643 s. With `Clc1ccc2nc(-c3ccc(N4CCOCC4)cc3)c(Nc3ccccc3)n2c1` the figure was 752 s; with `O=C(c1ccc(Br)o1)N1CCCC(c2nnc(-c3ccccc3)o2)C1` (stereo not drawn), 852 s. As to `COc1ccc(-n2ccn3cc(-c4ccc(F)cc4F)nc3c2=O)cc1Cl`, the RP-LC retention time amounted to 929 s. The same measure for `Cc1ccn2cc(C(=O)NCCCN3CCCC3=O)nc2c1`: 535 s. As for `CCSc1nnc(-c2nn(C)c3c2CN(S(=O)(=O)c2ccc(OC)cc2)CC3)n1CC`, the RP-LC retention time amounted to 905 s.

`COc1ccc(C)cc1NC(=O)N1CCC2(CC1)NC(=O)c1ccc(F)cc1N2C` displayed an RP-LC retention time of 777 s. With `CCOC(=O)C1=C(CN2CCN(Cc3ccc4c(c3)OCO4)CC2)NC(=O)NC1c1ccc(F)cc1` (stereo not drawn) the figure was 675 s.
